In patent publication US20190112357A1, “PREVENTION OF PROTEIN DISULFIDE BOND REDUCTION” (MedImmune, LLC, priority 2016, published 2019):

What was measured:
GR/GSSG = target: T1, GR/GSSG (Homo sapiens, UniProt P00390); assay: DTNB reductase activity assay, recombinant GR/GSSG; assay type: biochemical; details: ATG concentrations lower than 5 μM
T1 construct: purchased Abcam
T1 sequence (P00390 44-522): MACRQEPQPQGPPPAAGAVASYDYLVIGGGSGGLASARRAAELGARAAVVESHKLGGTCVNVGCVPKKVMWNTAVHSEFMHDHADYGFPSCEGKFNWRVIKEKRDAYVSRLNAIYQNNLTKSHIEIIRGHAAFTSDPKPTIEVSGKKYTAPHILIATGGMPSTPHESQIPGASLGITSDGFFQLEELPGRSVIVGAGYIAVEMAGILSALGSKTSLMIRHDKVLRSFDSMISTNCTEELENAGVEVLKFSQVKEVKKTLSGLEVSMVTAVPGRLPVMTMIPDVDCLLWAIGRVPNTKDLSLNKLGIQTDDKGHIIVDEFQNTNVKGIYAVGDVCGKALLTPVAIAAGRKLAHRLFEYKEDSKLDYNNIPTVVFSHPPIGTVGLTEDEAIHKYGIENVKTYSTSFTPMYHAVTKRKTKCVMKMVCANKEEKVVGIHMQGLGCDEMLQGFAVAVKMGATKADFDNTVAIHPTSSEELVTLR
Description: (§1) Briefly, culture samples were thawed on ice. […] The samples were then allowed to incubate 5 minutes.
(§2) Activity of the reductases was calculated as follows. […] The activity was then calculated by the following equation: […]

[1] = target: T2, recombinant mammalian GR/GSSG (Homo sapiens, UniProt P00390); assay: Reduction of purified mAb B by recombinant GR/GSSG, capillary electrophoresis; assay type: biochemical
T2 construct: purchased Abcam
T2 sequence (P00390 44-522): T1 sequence (P00390 44-522)
Description: Antibody reduction in cell culture supernatant samples was measured by detecting the presence of reduced species via capillary electrophoresis using standard procedures on a 2100 Bioanalyzer system (Agilent Technologies, Santa Clara, Calif.). Samples were diluted 1-6 fold depending on titer and analyzed under non-reducing conditions following 2100 Bioanalyzer standard protocols. Supernatant samples from 3 L bioreactors were stored frozen until all samples had been acquired and were ready for analysis. Samples were thawed on ice and analyzed immediately to evaluate the amount of reduced antibody in the reactor on each day of the run.
Using the same approach with recombinant mammalian enzymes, the glutathione system was evaluated by spiking mAb B into five solutions containing: 1) no enzyme, 2) 1 mM GSSG (oxidized glutathione), 3) 0.2 μM GR (glutathione reductase), 4) 0.2 μM GR with 1 mM GSSG, and 5) 0.02 μM GR with 1 mM GSSG. […] The results indicated a minimal mAb B reduction in the solutions containing GSSG alone. This is the result of an impurity in the GSSG. […] was reduced in the solutions containing both GR and GSSG.
To confirm that the activity from a particular reductase system can translate into reduced antibody, a second method was developed to determine the impact of each reductase system on antibody reduction. The principle of the reduction assay is similar to the reductase activity assay described above. The percent of protein reduction without an inhibitor was compared to the percent of protein reduction in the presence of specific inhibitors for GR or TrxR1. In this assay, purified mAb B was spiked into solutions containing recombinant mammalian TrxR1/Trx1 or recombinant mammalian GR/GSSG and stored in an oxygen-free environment overnight. The percent of reduced mAb B antibody was evaluated using capillary electrophoresis, as set forth above.

[2] = system: TrxR1 purified from a day 14 culture of cell line B; assay: DTNB reductase activity of 2'5'-ADP column fractions from cell line B, TrxR1; assay type: biochemical, Chinese Hamster; details: 0.5 μM ATG, fractions B1-C2, depending on the fraction
Description: Reductases were purified from cell samples to verify the specificity of reductase inhibitors. A day 14 culture of mAb B (IgG antibody produced by CHO cell line B CHO-K1SV) was pelleted by centrifugation, washed once with PBS and re-suspended in 50 mM tris buffer, pH 7.5. The solution was homogenized and filtered at 0.2 μm prior to loading onto a column of 2′5′-ADP Sepharose 4B resin. The reductases were eluted using a linearly increasing gradient of 0 to 0.3 mM NADP^+ in the same tris buffer (Yadav, et al., Parasitol. Int., 62:193-198, 2013). The reductase activity of the collected fractions was determined using the assay described in Example 3. Additionally, western blot analysis was used to detect TrxR1 and GR in the collected fractions.
The reductase-specific inhibitors were evaluated above using purified recombinant mammalian enzymes from rat and human. […] The added activity from the two systems was approximately equal to the total activity detected in the absence of an inhibitor for each fraction. […] That is, if the reductase inhibitors were non-specifically inhibiting both enzymatic systems, the added reductase activity would have been […] than the reductase activity detected without any added inhibitor. […] The fractions with reductase activity were pooled and further evaluated at the inhibitor concentrations assayed in the antibody reduction assay.

[3] = system: TrxR1 purified from CHO cell cultures; assay: mAb B reduction by pooled CHO fractions with NADPH and Trx1; assay type: biochemical, Chinese Hamster; details: 3 μM Cu^2+ or 100 μM ATG, overnight room temperature
Description: Purified mAb B was spiked into several solutions containing different combinations of the pooled fractions (PF), recombinant Trx1, GSSG, NADPH, ATG, and Cu^2+. The solutions were incubated at room temperature overnight and the amount of intact antibody remaining was determined by capillary electrophoresis according to the protocol described above. In the first set of samples, purified mAb B was spiked into the pooled fractions with, and without, NADPH.
The third set of solutions contained the pooled enzymes, NADPH, Trx1, and either no inhibitor, 3 μM Cu^2+, or 100 μM ATG. […] In the final sample as a control, mAb B was spiked into a solution containing NADPH, Trx1, and GSSG.

thioredoxin system = assay: Reductase activity assay, day 14 culture samples, thioredoxin system; assay type: biochemical, Chinese Hamster; details: day 14, 0.5 μM ATG
Description: The total reductase activity was determined in the absence of any inhibitor. […] Thus, the difference in activity between a sample with ATG, and a sample without any inhibitor, indicates the amount of reductase activity contributed the thioredoxin system. […] Thus, the difference in reductase activity between a sample with 2-AAPA, and a sample without any inhibitor, indicates the amount of reductase activity contributed by the glutathione system. Although ATG and 2-AAPA are provided as exemplary specific inhibitors, other specific inhibitors discussed above can be employed in this assay instead of ATG and 2-AAPA.
as §1, §2
The reductase activities of the thioredoxin and glutathione systems were evaluated in day 14 culture samples of the same CHO cell lines A, B, C, and D, using the previously evaluated specific inhibitors 2-AAPA and ATG at 100 μM and 0.5 μM respectively. Data in FIG. 6A were normalized to viable cell density. Cell lines A, B, and C were described in Example 6, above. Cell line D is the cell line CHO CAT-S, and is stably transfected to produce an IgG1 mAb (mAb D).

OC[C@H]1O[C@H]([S-])[C@H](O)[C@@H](O)[C@@H]1O.[Au+] [ATG, aurothioglucose]
reductase activity of solutions containing GR/GSSG (GR/GSSG): unaffected | antibody reduction in sample containing GR/GSSG ([1]; 0.1 mM ATG, purified mAb B, overnight, oxygen-free): complete reduction of the antibody | specificity in GR/GSSG samples at higher concentrations ([1]; 0.5 mM and 1 mM ATG, increasing intact antibody): no longer specific for the thioredoxin system | share of reductase activity from TrxR1, determined with the inhibitor [2]: 60-75% | antibody reduction in pooled enzymes, NADPH, Trx1 [3]: completely prevented reduction | share of total reductase activity from the thioredoxin system (thioredoxin system; cell line A): 35% | share of total reductase activity from the thioredoxin system (thioredoxin system; cell line B): 60% | share of total reductase activity from the thioredoxin system (thioredoxin system; cell line C): 87% | share of total reductase activity from the thioredoxin system (thioredoxin system; cell line D): 60%
